target: human EP4 receptor (Homo sapiens (Human), UniProt P35408); assay: Test for antagonism of the human EP4 receptor signal (cAMP HTRF); format: cell-based; settings: cells expressing hEP4, PGE2 at EC80 (0.4 nM), cAMP TR-FRET; read-out: Antagonism hEP4 IC50
Source text: The binding of the agonist prostaglandin E2 (PGE2) to the EP4 subtype of human hPGE2-R (hEP4-R) induces the activation of membrane-bound adenylate cyclases and thus the formation of cAMP. In the presence of the phosphodiesterase inhibitor IBMX, this cAMP accumulates intracellularly and is employed in a competitive detection procedure after cell lysis. In this procedure, it competes with a fluorescence-labelled cAMP (cAMP-d2) for binding to an Eu cryptate-labelled anti-cAMP antibody. In the absence of cellular cAMP, a complex is formed between the Eu cryptate-labelled anti-cAMP antibody and the cAMP-d2 molecule, which after excitation at 337 nm makes possible an energy transfer based on FRET (fluorescence resonance energy transfer) to the cAMP-d2 tracer and leads to a long-lasting fluorescence signal (emission at 665 and 620 nm). This signal is time-resolved, i.e. measured in a suitable measuring apparatus after decay of the background fluorescence (time resolved; TR-FRET). The wave ratio determination (emission 665 nm/emission 620 nm*10000) moreover makes it possible to standardize individual measurement differences in the added amounts of the detection reagents.
By means of prostaglandin E2 administration and increase in the intracellular cAMP, a lowering of the FRET signal occurs, which in the case of an antagonistic substance action increases again.
A further 20 min at room temperature later, the cell lysate is measured according to the manufacturer's instructions in a TR-FRET-suitable measuring apparatus (compare cAMP HTRF assay kit: Cisbio International 62AM6PEJ high range)

Chain of human EP4 receptor (P35408 whole entry): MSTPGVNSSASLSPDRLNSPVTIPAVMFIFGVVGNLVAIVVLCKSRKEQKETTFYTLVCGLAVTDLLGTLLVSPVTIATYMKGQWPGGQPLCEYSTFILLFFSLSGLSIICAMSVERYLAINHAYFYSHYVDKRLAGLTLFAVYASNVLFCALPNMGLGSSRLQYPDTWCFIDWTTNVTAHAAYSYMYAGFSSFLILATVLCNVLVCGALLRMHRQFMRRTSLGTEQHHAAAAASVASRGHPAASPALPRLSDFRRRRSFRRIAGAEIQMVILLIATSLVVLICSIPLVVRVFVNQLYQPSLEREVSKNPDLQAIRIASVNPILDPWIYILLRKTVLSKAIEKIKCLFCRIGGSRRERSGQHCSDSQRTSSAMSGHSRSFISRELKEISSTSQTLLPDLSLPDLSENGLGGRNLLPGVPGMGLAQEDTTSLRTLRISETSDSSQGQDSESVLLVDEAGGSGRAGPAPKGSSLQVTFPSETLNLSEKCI

Compound	IC50 [nM]
CCOC(=O)c1ccc2c(c1)nc(-c1ccc3c(c1)c1ccccc1n3CC)n2CCN1CCCC1 [Example 37, Ethyl 2-(9-ethyl-9H-carbazol-3-yl)-1-[2-(pyrrolidin-1-yl)ethyl]-1H-benzimidazole-5-carboxylate]	3780
CCn1c2ccccc2c2cc(-c3nc4cc(C(=O)O)ccc4n3CCN3CCCC3)ccc21 [Example 38, 2-(9-Ethyl-9H-carbazol-3-yl)-1-[2-(pyrrolidin-1-yl)ethyl]-1H-benzimidazole-5-carboxylic acid]	742
CCn1c2ccccc2c2cc(-c3nc4cc(C(=O)NS(=O)(=O)C(C)(C)C)ccc4n3CCOC)ccc21 [Example 39, N-(tert-Butylsulphonyl)-2-(9-ethyl-9H-carbazol-3-yl)-1-(2-methoxyethyl)-1H-benzimidazole-5-carboxamide]	768
CCn1c2ccccc2c2cc(-c3nc4cc(C(=O)NS(=O)(=O)C5(C)CC5)ccc4n3CCOC)ccc21 [Example 40, 2-(9-Ethyl-9H-carbazol-3-yl)-1-(2-methoxyethyl)-N-[(1-methylcyclopropyl)sulphonyl]-1H-benzimidazole-5-carboxamide]	78.3
CCn1c2ccccc2c2cc(-c3nc4cc(C(=O)NC)ccc4n3CCOC)ccc21 [Example 41, 2-(9-Ethyl-9H-carbazol-3-yl)-1-(2-methoxyethyl)-N-methyl-1H-benzimidazole-5-carboxamide]	96.7
CCn1c2ccccc2c2nc(-c3nc4cc(C(=O)O)ccc4n3CCOC)ccc21 [Example 42, 2-(5-Ethyl-5H-pyrido[3,2-b]indol-2-yl)-1-(2-methoxyethyl)-1H-benzimidazole-5-carboxylic acid]	239
CCn1c2ccc(OC)cc2c2cc(-c3nc4cc(C(=O)O)ccc4n3CC3CC3)ccc21 [Example 43, 1-(Cyclopropylmethyl)-2-(9-ethyl-6-methoxy-9H-carbazol-3-yl)-1H-benzimidazole-5-carboxylic acid]	54.6
CCn1c2ccccc2c2cc(-c3nc4cc(C#N)ccc4n3CCOC)ccc21 [Example 44, 2-(9-Ethyl-9H-carbazol-3-yl)-1-(2-methoxyethyl)-1H-benzimidazole-5-carbonitrile]	421
CCn1c2ccccc2c2cc(-c3nc4cc(C(=O)NS(=O)(=O)c5ccc(C)cc5)ccc4n3CCOC)ccc21 [Example 48, 2-(9-Ethyl-9H-carbazol-3-yl)-1-(2-methoxyethyl)-N-[(4-methylphenyl)sulphonyl]-1H-benzimidazole-5-carboxamide]	99.5
CCn1c2ccccc2c2cc(-c3nc4cc(C(=O)NS(=O)(=O)c5ccc(Cl)cc5)ccc4n3CCOC)ccc21 [Example 49, N-[(4-Chlorophenyl)sulphonyl]-2-(9-ethyl-9H-carbazol-3-yl)-1-(2-methoxyethyl)-1H-benzimidazole-5-carboxamide]	61.5
CCn1c2ccccc2c2cc(-c3nc4cc(C(=O)NS(=O)(=O)c5ccc6ccccc6c5)ccc4n3CCOC)ccc21 [Example 51, 2-(9-Ethyl-9H-carbazol-3-yl)-1-(2-methoxyethyl)-N-(2-naphthylsulphonyl)-1H-benzimidazole-5-carboxamide]	95.5
CCn1c2ccccc2c2cc(-c3nc4cc(C(=O)NS(=O)(=O)c5ccccc5OC)ccc4n3CCOC)ccc21 [Example 52, 2-(9-Ethyl-9H-carbazol-3-yl)-1-(2-methoxyethyl)-N-[(2-methoxyphenyl)sulphonyl]-1H-benzimidazole-5-carboxamide]	35.9
CCn1c2ccccc2c2cc(-c3nc4cc(C(=O)NS(=O)(=O)Cc5ccccc5)ccc4n3CCOC)ccc21 [Example 55, N-(Benzylsulphonyl)-2-(9-ethyl-9H-carbazol-3-yl)-1-(2-methoxyethyl)-1H-benzimidazole-5-carboxamide]	117
CCn1c2ccccc2c2cc(-c3nc4cc(C(=O)NS(=O)(=O)CCc5cccc(Cl)c5)ccc4n3CCOC)ccc21 [Example 56, N-{[2-(3-Chlorophenyl)ethyl]sulphonyl}-2-(9-ethyl-9H-carbazol-3-yl)-1-(2-methoxyethyl)-1H-benzimidazole-5-carboxamide]	238
CCn1c2ccccc2c2cc(-c3nc4cc(C(=O)NS(=O)(=O)CCc5ccccc5C)ccc4n3CCOC)ccc21 [Example 57, 2-(9-Ethyl-9H-carbazol-3-yl)-1-(2-methoxyethyl)-N-{[2-(2-methylphenyl)ethyl]sulphonyl}-1H-benzimidazole-5-carboxamide]	239
CCn1c2ccccc2c2cc(-c3nc4cc(C(=O)NS(=O)(=O)Cc5ccc(F)cc5)ccc4n3CCOC)ccc21 [Example 58, 2-(9-Ethyl-9H-carbazol-3-yl)-N-[(4-fluorobenzyl)sulphonyl]-1-(2-methoxyethyl)-1H-benzimidazole-5-carboxamide]	174
CCn1c2ccccc2c2cc(-c3nc4cc(C(=O)NS(=O)(=O)CCc5ccccc5Cl)ccc4n3CCOC)ccc21 [Example 61, N-{[2-(2-Chlorophenyl)ethyl]sulphonyl}-2-(9-ethyl-9H-carbazol-3-yl)-1-(2-methoxyethyl)-1H-benzimidazole-5-carboxamide]	167
CCn1c2ccccc2c2cc(-c3nc4cc(C(=O)NS(=O)(=O)Cc5ccc(C(F)(F)F)cc5)ccc4n3CCOC)ccc21 [Example 62, 2-(9-Ethyl-9H-carbazol-3-yl)-1-(2-methoxyethyl)-N-{[4-(trifluoromethyl)benzyl]sulphonyl}-1H-benzimidazole-5-carboxamide]	186
CCn1c2ccccc2c2cc(-c3nc4cc(C(=O)NS(=O)(=O)c5ccc(C)cn5)ccc4n3CCOC)ccc21 [Example 63, 2-(9-Ethyl-9H-carbazol-3-yl)-1-(2-methoxyethyl)-N-[(5-methylpyridin-2-yl)sulphonyl]-1H-benzimidazole-5-carboxamide]	117
CCn1c2ccccc2c2cc(-c3nc4cc(C(=O)NS(=O)(=O)Cc5ccc(Cl)cc5)ccc4n3CCOC)ccc21 [Example 64, N-[(4-Chlorobenzyl)sulphonyl]-2-(9-ethyl-9H-carbazol-3-yl)-1-(2-methoxyethyl)-1H-benzimidazole-5-carboxamide]	138
CCn1c2ccccc2c2cc(-c3nc4cc(C(=O)NS(=O)(=O)Cc5ccccc5OC(F)(F)F)ccc4n3CCOC)ccc21 [Example 65, 2-(9-Ethyl-9H-carbazol-3-yl)-1-(2-methoxyethyl)-N-{[2-(trifluoromethoxy)benzyl]-sulphonyl}-1H-benzimidazole-5-carboxamide]	133

Second part, the molecule after the results:

IC50 [nM]	Compound
13.1	COCCn1c(-c2ccc3c(c2)c2ccccc2n3CC2CC2)nc2cc(C(=O)O)ccc21 [Example 36, 2-[9-(Cyclopropylmethyl)-9H-carbazol-3-yl]-1-(2-methoxyethyl)-1H-benzimidazole-5-carboxylic acid]
13.4	CCn1c2ccccc2c2cc(-c3nc4cc(-c5nnn[nH]5)ccc4n3CCOC)ccc21 [Example 45, 9-Ethyl-3-[1-(2-methoxyethyl)-5-(1H-tetrazol-5-yl)-1H-benzimidazol-2-yl]-9H-carbazole]
12.4	CCn1c2ccccc2c2cc(-c3nc4cc(-c5noc(=O)[nH]5)ccc4n3CCOC)ccc21 [Example 46, 3-[2-(9-Ethyl-9H-carbazol-3-yl)-1-(2-methoxyethyl)-1H-benzimidazol-5-yl]-1,2,4-oxadiazol-5(4H)-one]
25.6	CCn1c2ccccc2c2cc(-c3nc4cc(C(=O)NS(=O)(=O)c5cccc(C)c5)ccc4n3CCOC)ccc21 [Example 47, 2-(9-Ethyl-9H-carbazol-3-yl)-1-(2-methoxyethyl)-N-[(3-methylphenyl)sulphonyl]-1H-benzimidazole-5-carboxamide]
33.6	CCn1c2ccccc2c2cc(-c3nc4cc(C(=O)NS(=O)(=O)c5ccccc5)ccc4n3CCOC)ccc21 [Example 50, 2-(9-Ethyl-9H-carbazol-3-yl)-1-(2-methoxyethyl)-N-(phenylsulphonyl)-1H-benzimidazole-5-carboxamide]
35.3	CCn1c2ccccc2c2cc(-c3nc4cc(C(=O)NS(=O)(=O)c5ccccc5C)ccc4n3CCOC)ccc21 [Example 53, 2-(9-Ethyl-9H-carbazol-3-yl)-1-(2-methoxyethyl)-N-[(2-methylphenyl)sulphonyl]-1H-benzimidazole-5-carboxamide]
17.6	CCn1c2ccccc2c2cc(-c3nc4cc(C(=O)NS(=O)(=O)c5ccccc5OC(F)(F)F)ccc4n3CCOC)ccc21 [Example 54, 2-(9-Ethyl-9H-carbazol-3-yl)-1-(2-methoxyethyl)-N-{[2-(trifluoromethoxy)phenyl]-sulphonyl}-1H-benzimidazole-5-carboxamide]
16.9	CCn1c2ccccc2c2cc(-c3nc4cc(C(=O)NS(=O)(=O)CCOC)ccc4n3CCOC)ccc21 [Example 59, 2-(9-Ethyl-9H-carbazol-3-yl)-1-(2-methoxyethyl)-N-[(2-methoxyethyl)sulphonyl]-1H-benzimidazole-5-carboxamide]
19.8	CCn1c2ccccc2c2cc(-c3nc4cc(C(=O)NS(=O)(=O)Cc5c(Cl)cccc5Cl)ccc4n3CCOC)ccc21 [Example 60, N-[(2,6-Dichlorbenzyl)sulphonyl]-2-(9-ethyl-9H-carbazol-3-yl)-1-(2-methoxyethyl)-1H-benzimidazole-5-carboxamide]

— US9708311B2, “Benzimidazole derivatives as EP4 antagonists” (BAYER PHARMA AKTIENGESELLSCHAFT, priority 2012, dated 2017)
